Results taken from patent US12138256B2, “Treatment of cardiopulmonary disorders” (Bayer Aktiengesellschaft, priority 2021, dated 2024).

System: sGC (cGMP)
Test: Phase I, healthy male subjects, 7 days once daily inhalation: cGMP in blood samples (C-4.1)
Type: in vivo, human
Conditions: for time of cGMP peak after administration: first inhalation; for mean peak cGMP: after repeated dosing for 7 days; for peak mean±SD cGMP: first profile day
Method: Healthy White male subjects, aged 18 to 45 years and with a body mass index (BMI) above/equal 18.5 and below/equal 29.9 kg/m2 were treated in a clinical pharmacological phase I study on seven days with inhaled once daily doses of 480 μg or 1000 μg or 2000 μg (2 capsules of 1000 μg) (nominal dose) of dry powder formulations of example 2 or Placebo. The subjects inhaled the drug powder from capsules (see under D-1, e.g. tables 22 and 23) inserted into a handheld inhalation device by one deep inhalative breath. The dry powder formulation of the drug is dispersed into the airstream and fine particles are transported into the deep parts of the lung where it is intended to cause a vasodilation of the blood vessels in PH patients for a substantial reduction of increased blood pressure in the central pulmonary blood vessels in PAH patients or other subtypes of PH. This effect cannot be shown in subjects with healthy lungs. In addition inhaled drug causes a dilation of the bronchial airways and thus also improves disease states of lung diseases in PH patients with pathological bronchoconstriction. This effect was measured via bodyplethysmography as reduction of Specific Airway Resistance in healthy subjects. After the deep inhalative breath the subjects hold breath for 2 seconds, so that the dry powder drug condenses from the airstream onto the surface of the deeper lung areas where it is deposited close to its site of intended pharmacological action. The drug dissolutes over the day and equilibrates the lung via lining fluid.
Drug activity in healthy men was controlled in the healthy subjects by analysing blood samples for cGMP, the immediate product of sGC pharmacological activation prior after the first and after the last drug inhalation of the 7 days treatment in comparison to measurements on the pretreatment day for all doses.
This prolonged activity in comparison to systemic drug concentration is caused by the mode of administration as inhaled dry powder, that deposits drug in the deeper part of the lung leading to an active drug concentration over 24 h after a once daily inhalation.
At 10 days after the first treatment, mean cGMP concentrations had returned close to the concentration observed at the pre-dosing day.

## O=C(O)c1ccc(CCN(CCc2ccccc2OCc2ccc(-c3ccc(C(F)(F)F)cc3)cc2Cl)[C@H]2CCCc3nc(C(=O)O)ccc32)cc1 [example 2, (5S)-{[2-(4-Carboxyphenyl)ethyl][2-(2-{[3-chloro-4′-(trifluoromethyl)biphenyl-4-yl]methoxy}phenyl)-ethyl]amino}-5,6,7,8-tetrahydroquinoline-2-carboxylic acid]
1000 μg, 5 D 00 H 00 M (trough)
  cGMP, mean ± SD: 8.50 ± 2.13 nmol/L
1000 μg, 6 D 00 H 00 M (trough)
  cGMP, mean ± SD: 9.23 ± 2.12 nmol/L
1000 μg, 7 D 00 H 00 M (trough)
  cGMP, mean ± SD: 9.66 ± 2.30 nmol/L
1000 μg, 7 D 02 H 00 M
  cGMP, mean ± SD: 11.84 ± 2.18 nmol/L
1000 μg, 7 D 04 H 00 M
  cGMP, mean ± SD: 15.76 ± 2.29 nmol/L
1000 μg, 7 D 06 H 00 M
  cGMP, mean ± SD: 16.70 ± 2.96 nmol/L
1000 μg, 7 D 08 H 00 M
  cGMP, mean ± SD: 15.91 ± 3.86 nmol/L
1000 μg, 7 D 12 H 00 M
  cGMP, mean ± SD: 14.10 ± 4.55 nmol/L
1000 μg, 7 D 15 H 00 M
  cGMP, mean ± SD: 12.91 ± 3.72 nmol/L
1000 μg, 8 D 00 H 00 M
  cGMP, mean ± SD: 9.38 ± 3.11 nmol/L
1000 μg, 8 D 12 H 00 M
  cGMP, mean ± SD: 7.21 ± 2.24 nmol/L
1000 μg, 9 D 00 H 00 M
  cGMP, mean ± SD: 6.29 ± 1.86 nmol/L
1000 μg, 9 D 12 H 00 M
  cGMP, mean ± SD: 5.93 ± 1.39 nmol/L
1000 μg, 10 D 00 H 00 M
  cGMP, mean ± SD: 6.33 ± 2.30 nmol/L
1000 μg, −0 D 09 H 00 M (baseline)
  cGMP, mean ± SD: 4.18 ± 0.82 nmol/L
1000 μg, −0 D 09 H 00 M (pretreatment day)
  cyclic guanosine monophosphate changes from baseline: -0.84 ± 2.04 nmol/L
1000 μg, −0 D 12 H 00 M (baseline)
  cGMP, mean ± SD: 4.26 ± 0.99 nmol/L
1000 μg, −0 D 12 H 00 M (pretreatment day)
  cyclic guanosine monophosphate changes from baseline: -0.77 ± 1.72 nmol/L
1000 μg, −0 D 16 H 00 M (baseline)
  cGMP, mean ± SD: 4.59 ± 1.06 nmol/L
1000 μg, −0 D 16 H 00 M (pretreatment day)
  cyclic guanosine monophosphate changes from baseline: -0.43 ± 1.49 nmol/L
1000 μg, −0 D 18 H 00 M (baseline)
  cGMP, mean ± SD: 4.16 ± 0.92 nmol/L
1000 μg, −0 D 18 H 00 M (pretreatment day)
  cyclic guanosine monophosphate changes from baseline: -0.87 ± 1.44 nmol/L
1000 μg, −0 D 20 H 00 M (baseline)
  cGMP, mean ± SD: 4.78 ± 1.37 nmol/L
1000 μg, −0 D 20 H 00 M (pretreatment day)
  cyclic guanosine monophosphate changes from baseline: -0.24 ± 1.75 nmol/L
1000 μg, −0 D 22 H 00 M (baseline)
  cGMP, mean ± SD: 5.10 ± 1.46 nmol/L
1000 μg, −0 D 22 H 00 M (pretreatment day)
  cyclic guanosine monophosphate changes from baseline: 0.08 ± 1.41 nmol/L
1000 μg, −1 D 02 H 00 M (baseline)
  cGMP, mean ± SD: 5.02 ± 1.59 nmol/L
2000 μg dose
  time of cGMP peak after administration: 8 h
2000 μg once daily inhaled, 0 D 02 H 00 M
  cyclic guanosine monophosphate changes from baseline: 4.78 ± 1.35 nmol/L
2000 μg once daily inhaled, 0 D 04 H 00 M
  cyclic guanosine monophosphate changes from baseline: 9.18 ± 2.50 nmol/L
2000 μg once daily inhaled, 0 D 06 H 00 M
  cyclic guanosine monophosphate changes from baseline: 11.04 ± 3.21 nmol/L
2000 μg once daily inhaled, 0 D 08 H 00 M
  cyclic guanosine monophosphate changes from baseline: 11.69 ± 2.78 nmol/L
2000 μg once daily inhaled, 0 D 12 H 00 M
  cyclic guanosine monophosphate changes from baseline: 8.56 ± 2.19 nmol/L
2000 μg once daily inhaled, 0 D 15 H 00 M
  cyclic guanosine monophosphate changes from baseline: 7.54 ± 2.32 nmol/L
2000 μg once daily inhaled, 1 D 00 H 00 M
  cyclic guanosine monophosphate changes from baseline: 3.48 ± 0.90 nmol/L
2000 μg once daily inhaled, 2 D 00 H 00 M
  cyclic guanosine monophosphate changes from baseline: 1.57 ± 0.86 nmol/L
2000 μg once daily inhaled, 3 D 00 H 00 M
  cyclic guanosine monophosphate changes from baseline: 5.17 ± 1.51 nmol/L
2000 μg once daily inhaled, 4 D 00 H 00 M
  cyclic guanosine monophosphate changes from baseline: 9.33 ± 2.55 nmol/L
2000 μg once daily inhaled, 5 D 00 H 00 M
  cyclic guanosine monophosphate changes from baseline: 11.10 ± 3.49 nmol/L
2000 μg once daily inhaled, 6 D 00 H 00 M
  cyclic guanosine monophosphate changes from baseline: 11.71 ± 2.66 nmol/L
2000 μg once daily inhaled, 7 D 00 H 00 M
  cyclic guanosine monophosphate changes from baseline: 11.36 ± 3.37 nmol/L
2000 μg once daily inhaled, 7 D 02 H 00 M
  cyclic guanosine monophosphate changes from baseline: 17.33 ± 4.18 nmol/L
2000 μg once daily inhaled, 7 D 04 H 00 M
  cyclic guanosine monophosphate changes from baseline: 22.23 ± 4.75 nmol/L
2000 μg once daily inhaled, 7 D 06 H 00 M
  cyclic guanosine monophosphate changes from baseline: 27.39 ± 6.93 nmol/L
2000 μg once daily inhaled, 7 D 08 H 00 M
  cyclic guanosine monophosphate changes from baseline: 27.83 ± 7.77 nmol/L
2000 μg once daily inhaled, 7 D 12 H 00 M
  cyclic guanosine monophosphate changes from baseline: 23.33 ± 5.53 nmol/L
2000 μg once daily inhaled, 7 D 15 H 00 M
  cyclic guanosine monophosphate changes from baseline: 19.08 ± 4.95 nmol/L
2000 μg once daily inhaled, 8 D 00 H 00 M
  cyclic guanosine monophosphate changes from baseline: 11.17 ± 3.69 nmol/L
2000 μg once daily inhaled, 8 D 12 H 00 M
  cyclic guanosine monophosphate changes from baseline: 8.02 ± 2.45 nmol/L
2000 μg once daily inhaled, 9 D 00 H 00 M
  cyclic guanosine monophosphate changes from baseline: 5.64 ± 1.36 nmol/L
2000 μg once daily inhaled, 9 D 12 H 00 M
  cyclic guanosine monophosphate changes from baseline: 4.57 ± 2.15 nmol/L
2000 μg once daily inhaled, 10 D 00 H 00 M
  cyclic guanosine monophosphate changes from baseline: 3.26 ± 1.07 nmol/L
2000 μg, 0 D 00 H 00 M
  cyclic guanosine monophosphate changes from baseline: 0.68 ± 1.14 nmol/L
2000 μg, 0 D 00 H 00 M (baseline)
  cGMP, mean ± SD: 4.83 ± 2.52 nmol/L
2000 μg, 0 D 02 H 00 M
  cGMP, mean ± SD: 9.61 ± 3.65 nmol/L
2000 μg, 0 D 04 H 00 M
  cGMP, mean ± SD: 14.01 ± 4.51 nmol/L
2000 μg, 0 D 06 H 00 M
  cGMP, mean ± SD: 15.88 ± 5.09 nmol/L
2000 μg, 0 D 08 H 00 M
  cGMP, mean ± SD: 16.52 ± 4.24 nmol/L
2000 μg, 0 D 12 H 00 M
  cGMP, mean ± SD: 13.39 ± 4.01 nmol/L
2000 μg, 0 D 15 H 00 M
  cGMP, mean ± SD: 12.38 ± 4.17 nmol/L
2000 μg, 1 D 00 H 00 M
  cGMP, mean ± SD: 8.31 ± 2.88 nmol/L
2000 μg, 2 D 00 H 00 M
  cGMP, mean ± SD: 6.40 ± 2.09 nmol/L
2000 μg, 3 D 00 H 00 M (trough)
  cGMP, mean ± SD: 10.00 ± 3.51 nmol/L
2000 μg, 4 D 00 H 00 M (trough)
  cGMP, mean ± SD: 14.17 ± 4.36 nmol/L
2000 μg, 5 D 00 H 00 M (trough)
  cGMP, mean ± SD: 15.93 ± 5.52 nmol/L
2000 μg, 6 D 00 H 00 M (trough)
  cGMP, mean ± SD: 16.54 ± 4.60 nmol/L
2000 μg, 7 D 00 H 00 M (trough)
  cGMP, mean ± SD: 16.19 ± 5.02 nmol/L
2000 μg, 7 D 02 H 00 M
  cGMP, mean ± SD: 22.17 ± 6.07 nmol/L
2000 μg, 7 D 04 H 00 M
  cGMP, mean ± SD: 27.07 ± 7.01 nmol/L
2000 μg, 7 D 06 H 00 M
  cGMP, mean ± SD: 32.22 ± 8.83 nmol/L
2000 μg, 7 D 08 H 00 M
  cGMP, mean ± SD: 32.67 ± 9.48 nmol/L
2000 μg, 7 D 12 H 00 M
  cGMP, mean ± SD: 28.17 ± 7.50 nmol/L
2000 μg, 7 D 15 H 00 M
  cGMP, mean ± SD: 23.91 ± 6.59 nmol/L
2000 μg, 8 D 00 H 00 M
  cGMP, mean ± SD: 16.00 ± 5.77 nmol/L
2000 μg, 8 D 12 H 00 M
  cGMP, mean ± SD: 12.86 ± 3.96 nmol/L
2000 μg, 9 D 00 H 00 M
  cGMP, mean ± SD: 10.48 ± 3.49 nmol/L
2000 μg, 9 D 12 H 00 M
  cGMP, mean ± SD: 9.40 ± 3.10 nmol/L
2000 μg, 10 D 00 H 00 M
  cGMP, mean ± SD: 8.09 ± 2.81 nmol/L
2000 μg, −0 D 09 H 00 M (baseline)
  cGMP, mean ± SD: 3.98 ± 1.91 nmol/L
2000 μg, −0 D 09 H 00 M (pretreatment day)
  cyclic guanosine monophosphate changes from baseline: -0.18 ± 0.90 nmol/L
2000 μg, −0 D 12 H 00 M (baseline)
  cGMP, mean ± SD: 4.43 ± 2.24 nmol/L
2000 μg, −0 D 12 H 00 M (pretreatment day)
  cyclic guanosine monophosphate changes from baseline: 0.28 ± 0.97 nmol/L
2000 μg, −0 D 16 H 00 M (baseline)
  cGMP, mean ± SD: 4.44 ± 2.15 nmol/L
2000 μg, −0 D 16 H 00 M (pretreatment day)
  cyclic guanosine monophosphate changes from baseline: 0.29 ± 1.17 nmol/L
2000 μg, −0 D 18 H 00 M (baseline)
  cGMP, mean ± SD: 4.32 ± 1.33 nmol/L
2000 μg, −0 D 18 H 00 M (pretreatment day)
  cyclic guanosine monophosphate changes from baseline: 0.17 ± 0.78 nmol/L
2000 μg, −0 D 20 H 00 M (baseline)
  cGMP, mean ± SD: 4.63 ± 1.86 nmol/L
2000 μg, −0 D 20 H 00 M (pretreatment day)
  cyclic guanosine monophosphate changes from baseline: 0.48 ± 0.71 nmol/L
2000 μg, −0 D 22 H 00 M (baseline)
  cGMP, mean ± SD: 4.81 ± 2.22 nmol/L
2000 μg, −0 D 22 H 00 M (pretreatment day)
  cyclic guanosine monophosphate changes from baseline: 0.66 ± 0.79 nmol/L
2000 μg, −1 D 02 H 00 M (baseline)
  cGMP, mean ± SD: 4.16 ± 1.70 nmol/L
480, 1000, 2000 μg
  start of cGMP increase after first inhalation: approximately 2 h
480 and 1000 μg dose
  time of cGMP peak after administration: 6 h
480 μg
  mean peak cGMP: 11.96 ± 2.80 nmol/L
  peak mean±SD cGMP: 8.84 ± 1.35 nmol/L
1000 μg
  mean peak cGMP: 16.70 ± 2.96 nmol/L
  peak mean±SD cGMP: 11.69 ± 1.86 nmol/L
2000 μg
  mean peak cGMP: 32.67 ± 9.48 nmol/L
  peak mean±SD cGMP: 16.52 ± 4.24 nmol/L
